In US12161688B2, “Treatment of inflammatory bowel disease with long acting glatiramer and adipose-derived stem cells” (STEM CELL MEDICINE LTD., priority 2016, dated 2024):

System: DSS-induced IBD
Test: DSS-induced inflammatory bowel disease (acute colitis) in mice
Format: in vivo, C57BL/6 female mice
Procedure: Glatiramer acetate (GA) and GA Depot administration: […] GA Depot was suspended in sterile water for injection (WFI) (B Braun, Melsumgen, Germany) and injected intramuscularly (IM) at 10 mg dose (doses of GA Depot are given according to amount of active ingredient, i.e. GA Depot 10 mg contains 10 mg GA) divided to two 5 mg doses on days 0 and 1 due to technical reasons (volume limitation). Animals: All animal studies were approved by local ethics committees. C57BL/6 female mice, 7-9 weeks old were randomized into control or treatment groups with similar mean weight Animals were given food and water ad libitum throughout the experiment. Cell culture: SVF was plated at a density of 2×10^6 cells per 75 cm^2. Cells were grown to 80% confluency, trypsinized and sub-cultured up to passage 3-4. Cells were then collected and analyzed by FACS for the markers: […] The cells were stored frozen in liquid nitrogen until use. For use, the cells were thawed and plated at a concentration of 50,000 cells/cm^2 and incubated overnight. Prior to cells intraperitoneal (IP) injection the cells were trypsinized, counted and prepared for injection at a concentration of 1×10^6 cell/100 ul PBS and kept in ice until use for a period no longer than 30 min. Inflammatory bowel disease (IBD) induction: A widely used IBD model in mice is the dextran sulfate sodium (DSS)-induced colitis. DSS administration in the mice drinking water leads to many of the events presumed to initiate and sustain human IBD (Boismenu and Chen (2000) J Leukoc Biol, 67:267-278). […] In brief, body weight, rectal bleeding (observation of bleeding signs on the anus or gross bleeding), stool consistency and survival were monitored daily. […] Fourteen (14) days following disease induction, mice were sacrificed and the large intestine was collected and evaluated for colon length and microscopic colonic damage. […] Statistical analysis: Each data set was analyzed using single-factor analysis of variance (ANOVA) followed by two-tailed, two-sample students' T test assuming unequal variances, n=10/group, +/-standard error.

## L-glutamic acid polymer with L-alanine, L-lysine and L-tyrosine, acetate (salt) [Copaxone®]
Day 5
  animals showing bleeding (Hemoccult test): 50%
Day 10
  animals showing bleeding (Hemoccult test): 20%
mouse, in vivo
  effect on IBD manifestations (overall conclusion): almost no effect
